Experimental data taken from ChEMBL document CHEMBL6115010, “Targeting glioma with heteroaromatic alkaloids: A review of potential therapeutics” (Bioorg Med Chem, 2025).
≈ marks a conversion by molar mass, not a printed value.

Assays:
U-251 [1] = test: Antiproliferative activity against human U-251MG cells assessed as reduction in cell growth measured at 10 uM for 48 hrs by MTT assay relative to control; type: functional; set-up: scale not given: the % may be the effect or the level left
U-251 [2] = test: Cytotoxicity against human U-251MG cells assessed as cell growth inhibition incubated for 24 hrs by MTT assay; type: functional, cell-based; settings: U-251, 24 h
SK-N-SH [3] = test: Induction of apoptosis in human SK-N-SH cells assessed as early apoptotic cells at 200 micromol/L incubated for 48 hrs by Annexin V-FITC/Propidium Iodide staining based flow cytometry analysis (reference value: 10.3 %); type: functional; settings: dose 200 µmol/L, at 200 µM
U-87 MG [4] = test: Cytotoxicity against human U-87 MG cells assessed as reduction in cell viability at 400 uM measured for 24 hrs relative to control; type: functional, U-87MG ATCC
SH-SY5Y [5] = test: Cytotoxicity against human SH-SY5Y cells assessed as reduction in cell viability incubated for 24 hrs by MTT assay; type: functional, cell-based
SK-N-SH [6] = test: Induction of apoptosis in human SK-N-SH cells assessed as early apoptotic cells at 100 micromol/L incubated for 48 hrs by Annexin V-FITC/Propidium Iodide staining based flow cytometry analysis (reference value: 10.3 %); type: functional; settings: dose 100 µmol/L, at 100 µM
T98G [7] = test: Cytotoxicity against human T98G cells assessed as reduction in cell viability at 400 uM measured for 24 hrs relative to control; type: functional
C6 [8] = test: Antitumor activity against rat C6 cells implanted in athymic nude mouse model assessed as tumor growth inhibition at 30 mg/kg, sc administered once daily for 12 days and measured after 34 days relative to control; type: functional; settings: C6, 288 h, time 12 day, read-out: TGI
[9] = Antiproliferative activity against mouse GL26 cells assessed as reduction in cell viability measured for 96 hrs by MTT assay; type: functional, cell-based; settings: GL26, 96 h
C6 [10] = test: Antitumor activity against rat C6 cells implanted in athymic nude mouse model assessed as tumor growth inhibition at 30 mg/kg, ip administered once daily for 12 days and measured after 34 days relative to control; type: functional; settings: C6, 816 h, time 34 day, read-out: TGI
U-87 MG [11] = test: Antitumor activity against human U-87MG cells xenografted in athymic nude mouse model assessed as tumor growth inhibition at 30 mg/kg, ip administered once daily for 12 days relative to control; type: functional, U-87MG ATCC; settings: 288 h, time 12 day, read-out: TGI
C6 [12] = test: Antiproliferative activity against rat C6 cells assessed as reduction in cell viability measured for 96 hrs by MTT assay; type: functional, cell-based; settings: C6, 96 h
U-87 MG [13] = test: Antiproliferative activity against human U-87 MG cells assessed as reduction in cell viability measured for 96 hrs by MTT assay; type: functional, cell-based, U-87MG ATCC
9L [14] = test: Antiproliferative activity against rat 9L cells assessed as reduction in cell viability measured for 96 hrs by MTT assay; type: functional, cell-based
SNB-19 = test: Antiproliferative activity against human SNB-19 cells assessed as reduction in cell viability measured for 96 hrs by MTT assay; type: functional, cell-based; settings: SNB-19, 96 h
[15] = Antiproliferative activity against human U373 MG cells assessed as reduction in cell growth measured for 72 hrs by MTT assay; type: functional, cell-based, U-373MG ATCC
U-87 MG [16] = test: Synergistic antiproliferative activity against human U-87 MG cells assessed as combination index at 10 uM incubated for 48 hrs in presence of 1.5 microg/ml Delta-Tocotrienol; type: functional, U-87MG ATCC
U-87 MG [17] = test: Cytotoxicity against human U-87 MG cells assessed as reduction in cell viability in presence of Delta-Tocotrienol incubated for 72 hrs by neutral red uptake assay; type: functional, cell-based, U-87MG ATCC
U-87 MG [18] = test: Cytotoxicity against human U-87 MG cells assessed as reduction in cell viability incubated for 72 hrs by neutral red uptake assay; type: functional, cell-based, U-87MG ATCC
U-87 MG [19] = test: Cytotoxicity against human U-87 MG cells assessed as reduction in cell viability in presence of Jerantinine B incubated for 72 hrs by neutral red uptake assay; type: functional, cell-based, U-87MG ATCC
MRC5 = test: Cytotoxicity against human MRC5 cells assessed as reduction in cell viability incubated for 72 hrs by neutral red uptake assay; type: functional, cell-based; settings: MRC5, 72 h
T98G [20] = test: Cytotoxicity against human T98G cells assessed as inhibition of cell growth measured for 72 hrs by MTT assay; type: functional, cell-based
T98G [21] = test: Antiproliferative activity against human T98G cells assessed as inhibition of cell growth measured for 72 hrs by MTT assay; type: functional, cell-based
U-251 [22] = test: Antiproliferative activity against human U-251MG cells assessed as inhibition of cell growth measured for 72 hrs by MTT assay; type: functional, cell-based; settings: U-251, 72 h
U-251 [23] = test: Cytotoxicity against human U-251MG cells assessed as inhibition of cell growth measured for 72 hrs by MTT assay; type: functional, cell-based; settings: U-251, 72 h
U-87 MG [24] = test: Antiproliferative activity against human U-87 MG cells assessed as inhibition of cell growth measured for 72 hrs; type: functional, cell-based, U-87MG ATCC
[25] = Antiproliferative activity against human D-54MG cells assessed as inhibition of cell growth measured for 72 hrs; type: functional, cell-based; settings: D54MG
A 172 = test: Antiproliferative activity against human A-172 cells assessed as inhibition of cell growth measured for 72 hrs; type: functional, cell-based; settings: A 172, 72 h
T98G [26] = test: Antiproliferative activity against human T98G cells assessed as inhibition of cell growth measured for 72 hrs; type: functional, cell-based
U-251 [27] = test: Antiproliferative activity against human U-251MG cells assessed as inhibition of cell growth measured for 72 hrs; type: functional, cell-based; settings: U-251, 72 h
[28] = Cytotoxicity against rat ACNU-resistant C6 cells assessed as reduction in cell growth incubated for 24 hrs by MTT assay; type: functional, cell-based
[29] = Cytotoxicity against rat ACNU-resistant C6/ACNU cells assessed as reduction in cell growth in presence of reserpine at 20 uM incubated for 24 hrs by MTT assay; type: functional, cell-based
[30] = Cytotoxicity against rat ACNU-resistant C6/ACNU cells assessed as reduction in cell growth incubated for 24 hrs by MTT assay; type: functional, cell-based
[31] = Cytotoxicity against rat ACNU-resistant C6/ACNU cells assessed as reduction in cell growth in presence of reserpine at 10 uM incubated for 24 hrs by MTT assay; type: functional, cell-based
[32] = Cytotoxicity against rat ACNU-resistant C6 cell assessed as reduction in cell growth in presence of reserpine at 20 uM incubated for 24 hrs by MTT assay; type: functional, cell-based
[33] = Cytotoxicity against rat ACNU-resistant C6 cell assessed as reduction in cell growth in presence of reserpine at 10 uM incubated for 24 hrs by MTT assay; type: functional, cell-based
[34] = Antitumor activity against rat C6/ACNUcells implanted in Wistar rat assessed as increase in life span at 1 mg/kg relative to control; type: functional, C6/ACNU
U-251 [35] = test: Antiproliferative activity against human U-251MG cells assessed as reduction in cell growth measured for 48 hrs by MTT assay; type: functional, cell-based; settings: U-251, 48 h
SH-SY5Y [36] = test: Cytotoxicity against human SH-SY5Y cells measured for 48 hrs by SRB assay; type: functional, cell-based
CCRF-CEM = test: Cytotoxicity against human CCRF-CEM cells assessed as reduction in cell viability incubated for 72 hrs by resazurin dye based analysis; type: functional
9L [37] = test: Cytotoxicity against rat 9L cells assessed as reduction in cell viability incubated for 24 hrs by tryphan-blue dye based assay; type: functional
C6 [38] = test: Antitumor activity against rat C6 cells implanted in Wistar rat assessed as increase in life span at 250 mg/kg relative to control; type: functional
[39] = Cytotoxicity against human U-87 MG cells harboring EGFR mutation assessed as reduction in cell viability incubated for 72 hrs by resazurin dye based assay; type: functional, U-87MG ATCC
[40] = Antitumor activity against rat C6/ACNUcells implanted in Wistar rat assessed as increase in life span at 250 mg/kg relative to control; type: functional, C6/ACNU
[41] = Cytotoxicity against rat 9L/ACNU cells assessed as reduction in cell viability incubated for 24 hrs by tryphan-blue dye based assay; type: functional
ADR5000 cell line = test: Cytotoxicity against human CEM/ADR5000 cells assessed as reduction in cell viability incubated for 72 hrs by resazurin dye based analysis; type: functional; settings: ADR5000, 72 h
[42] = Cytotoxicity against human GBM cells harboring EGFR mutation assessed as reduction in cell viability incubated for 72 hrs by resazurin dye based assay; type: functional

Clc1ccccc1C(c1ccccc1)(c1ccccc1)n1ccnc1 [CLOTRIMAZOLE]
Activity (U-251 [1]): 70%

Nc1ncnc2c1ncn2[C@@H]1O[C@H](CO)C[C@H]1O [CORDYCEPIN]
IC50 (U-251 [2]): 250 µM | Activity (SK-N-SH [3]): 29.8% | Activity (U-87 MG [4]): 35% | IC50 (SH-SY5Y [5]): 175 µM | Activity (SK-N-SH [6]): 29.8% | Activity (T98G [7]): 76%

CC(C)=CCC/C(C)=C/CC/C(C)=C/CN1C(=O)c2cccc(O)c2Nc2c(O)cc(O)cc21 [DIAZEPINOMICIN]
inhibition in vivo at 30 mg/kg (C6 [8]): 60% | IC50 [9]: 8.9 µM | inhibition in vivo at 30 mg/kg (C6 [10]): 66% | inhibition in vivo at 30 mg/kg (U-87 MG [11]): 36% | IC50 (C6 [12]): 4.3 µM | IC50 (U-87 MG [13]): 10.9 µM | IC50 (9L [14]): 8.3 µM | IC50 (SNB-19): 5.3 µM

O=C1NC(=O)c2c1c1[nH]cnc1c1[nH]c3ccccc3c21 [GRANULATIMIDE]
IC50 [15]: 6 µM

CC[C@@]12CC(C(=O)OC)=C3Nc4cc(OC)c(O)cc4[C@@]34CCN(C[C@@H]3O[C@@H]31)[C@@H]24 [JERANTININE B]
CI (U-87 MG [16]): 0.85 | IC50 (U-87 MG [17]): 0.19 mg/L | IC50 (U-87 MG [18]): 0.74 mg/L (≈ 1.86 µM) | IC50 (U-87 MG [19]): 0.74 mg/L | IC50 (MRC5): 2.83 mg/L (≈ 7.1 µM)

COc1cc(/C=C/C(=O)NCCc2c[nH]c3ccc(O)cc23)ccc1O [N-FERULOYL SEROTONIN]
IC50 (T98G [20]): 193 µM | IC50 (T98G [21]): 730 µM | IC50 (U-251 [22]): 590 µM | IC50 (U-251 [23]): 238 µM

O=C(/C=C/c1ccc(O)cc1)NCCc1c[nH]c2ccc(O)cc12 [N-P-COUMAROYL SEROTONIN]
IC50 (U-87 MG [24]): 48 µM | IC50 [25]: 81 µM | IC50 (A 172): 62 µM | IC50 (T98G [26]): 68 µM | IC50 (U-251 [27]): 77 µM

Cc1ncc(CNC(=O)N(CCCl)N=O)c(N)n1.Cl [NIMUSTINE HYDROCHLORIDE]
IC50 [28]: 8.3 mg/L | IC50 [29]: 2.5 mg/L | IC50 [30]: 120 mg/L | IC50 [31]: 8 mg/L | IC50 [32]: 3.1 mg/L | IC50 [33]: 4.1 mg/L | Activity [34]: 143%

CC(C)(O)[C@H]1O[C@H]2CC[C@@]3(C)[C@@](O)(CC[C@H]4Cc5c([nH]c6ccccc56)[C@@]43C)C2=CC1=O [PAXILLINE]
IC50 (U-251 [35]): ~0.013 µM

OCc1ccc(-c2nccc3c2[nH]c2ccccc23)o1 [PERLOLYRIN]
IC50 (SH-SY5Y [36]): 23.9 µM

COC(=O)[C@H]1[C@H]2C[C@@H]3c4[nH]c5cc(OC)ccc5c4CCN3C[C@H]2C[C@@H](OC(=O)c2cc(OC)c(OC)c(OC)c2)[C@@H]1OC [RESERPINE]
IC50 (CCRF-CEM): 14.5 µM | IC50 (9L [37]): 1 µM | Activity (C6 [38]): 143% | IC50 [39]: 9.15 µM | Activity [40]: 142% | IC50 [41]: 2 µM | IC50 (ADR5000 cell line): 13.2 µM | IC50 [42]: 88 µM
